Measurements reported in patent US6355799B1, “Substituted benzene compounds, process for their preparation, and herbicidal and defoliant compositions containing them” (ISK Americas Incorporated, priority 1997, dated 2002).

Experiments:
Format in all cases: in vivo
[1] = system: redroot pigweed (Amaranthus retroflexus, AMARE); test: Pre-emerge test, greenhouse herbicide activity screening; conditions: pre-emerge, 14 days after application, rating scale 0-100
Summary of the method: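 Compounds in acetone were track-sprayed at 187 l/ha, 15–1000 g ai/ha, onto sandy loam pots. Pre-emerge seeds were sown one day before spraying, with surface watering afterwards. Post-emerge plants were at the 2–3 leaf stage and sprayed with 0.25% v/v non-ionic surfactant. Injury was rated 0–100 at 14 days.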

[2] = system: upland rice (Oryza sp., var. Tebonnet, RICE); test: Post-emerge test, crop safety; conditions: post-emerge, 14 days after application, rating scale 0-100
Summary of the method: (§1)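 Rating: 0–100 visual injury, 14 DAA. Application: acetone, 187 l/ha, 15–1000 g ai/ha, flat-fan track sprayer with nozzle 40–45 cm above soil or canopy. Post-emerge runs used 0.25% v/v surfactant on 2–3 leaf plants.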

[3] = system: field corn (Zea mays L., var. Dekalb 535, CORN); test: Post-emerge test, crop safety; conditions: post-emerge, 14 days after application, rating scale 0-100
Summary of the method: as §1

[4] = system: lambsquarters (Chenopodium album, CHEAL); test: Pre-emerge test, greenhouse herbicide activity screening; conditions: pre-emerge, 14 days after application, rating scale 0-100
Summary of the method: (§2)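 Compounds in acetone were track-sprayed at 15–1000 g ai/ha: pre-emergence onto soil sown the previous day, then top-watered to incorporate and later bottom-watered; post-emergence onto 2–3 leaf plants with 0.25% v/v surfactant, bottom-watered only. Ratings on a 0–100 phytotoxicity scale were taken at day 14.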

[5] = system: large crabgrass (Digitaria sanguinalis, DIGSA); test: as above; conditions: pre-emerge, 14 days after application, rating scale 0-100
Summary of the method: as §2

[6] = system: johnsongrass (Sorghum halepense, SORHA); test: as above; conditions: pre-emerge, 14 days after application, rating scale 0-100
Summary of the method: as §2

[7] = system: sicklepod (Cassia obtusifolia, CASOB); test: as above; conditions: pre-emerge, 14 days after application, rating scale 0-100
Summary of the method: as §2

[8] = system: ivyleaf morningglory (Ipomoea hederacea, IPOHE); test: as above; conditions: pre-emerge, 14 days after application, rating scale 0-100
Summary of the method: as §2

[9] = system: velvetleaf (Abutilon theophrasti, ABUTH); test: as above; conditions: pre-emerge, 14 days after application, rating scale 0-100
Summary of the method: as §2

[10] = system: common ragweed (Ambrosia artemisizfolia L., AMBEL); test: as above; conditions: pre-emerge, 14 days after application, rating scale 0-100
Summary of the method: as §2

[11] = system: green foxtail (Setaria viridis, SETVI); test: as above; conditions: pre-emerge, 14 days after application, rating scale 0-100
Summary of the method: as §2

[12] = system: barnyardgrass (Echinochloa crus-galli, ECHCG); test: as above; conditions: pre-emerge, 14 days after application, rating scale 0-100
Summary of the method: as §2

[13] = system: lambsquarters (Chenopodium album, CHEAL); test: Post-emerge test, greenhouse herbicide activity screening; conditions: post-emerge, 14 days after application, rating scale 0-100
Summary of the method: (§3)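 Fourteen days after spraying, crop and weed injury was graded visually from 0, no effect, to 100, every plant dead. Test substances were dissolved in acetone and applied at 15–1000 g ai/ha with a flat-fan nozzle. Application was either pre-emergence, one day after sowing, or post-emergence at the 2–3 leaf stage.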

[14] = system: large crabgrass (Digitaria sanguinalis, DIGSA); test: as above; conditions: post-emerge, 14 days after application, rating scale 0-100
Summary of the method: as §3

[15] = system: johnsongrass (Sorghum halepense, SORHA); test: as above; conditions: post-emerge, 14 days after application, rating scale 0-100
Summary of the method: as §3

[16] = system: sicklepod (Cassia obtusifolia, CASOB); test: as above; conditions: post-emerge, 14 days after application, rating scale 0-100
Summary of the method: as §3

[17] = system: ivyleaf morningglory (Ipomoea hederacea, IPOHE); test: as above; conditions: post-emerge, 14 days after application, rating scale 0-100
Summary of the method: as §3

[18] = system: velvetleaf (Abutilon theophrasti, ABUTH); test: as above; conditions: post-emerge, 14 days after application, rating scale 0-100
Summary of the method: as §3

[19] = system: green foxtail (Setaria viridis, SETVI); test: as above; conditions: post-emerge, 14 days after application, rating scale 0-100
Summary of the method: as §3

[20] = system: barnyardgrass (Echinochloa crus-galli, ECHCG); test: as above; conditions: post-emerge, 14 days after application, rating scale 0-100
Summary of the method: as §3

[21] = system: redroot pigweed (Amaranthus retroflexus, AMARE); test: as above; conditions: post-emerge, 14 days after application
Summary of the method: as §3

[22] = system: upland rice (Oryza sp., var. Tebonnet, RICE); test: Pre-emerge test, crop safety; conditions: pre-emerge, 14 days after application, rating scale 0-100
Summary of the method: as §3

[23] = system: field corn (Zea mays L., var. Dekalb 535, CORN); test: Pre-emerge test, crop safety; conditions: pre-emerge, 14 days after application, rating scale 0-100
Summary of the method: as §3

Structure (SMILES): COc1c(Cl)cc(F)c(-n2c(=O)cc(C(F)(F)F)n(C)c2=O)c1NNC(=O)c1ccccc1 [15-3]
- phytotoxicity rating AMARE ([1]; 63 g ai/ha): 100
- phytotoxicity rating AMARE ([1]; 250 g ai/ha): 100
- Post-emerge Herbicidal Activity RICE (crop damage rating) ([2]; 63 g ai/ha): 50
- Post-emerge Herbicidal Activity RICE (crop damage rating) ([2]; 250 g ai/ha): 90
- Post-emerge Herbicidal Activity CORN (crop damage rating) ([3]; 63 g ai/ha): 25
- Post-emerge Herbicidal Activity CORN (crop damage rating) ([3]; 250 g ai/ha): 80
- phytotoxicity rating CHEAL ([4]; 63 g ai/ha): 100
- phytotoxicity rating CHEAL ([4]; 250 g ai/ha): 100
- phytotoxicity rating DIGSA ([5]; 63 g ai/ha): 100
- phytotoxicity rating DIGSA ([5]; 250 g ai/ha): 100
- phytotoxicity rating SORHA ([6]; 63 g ai/ha): 100
- phytotoxicity rating SORHA ([6]; 250 g ai/ha): 100
- phytotoxicity rating CASOB ([7]; 63 g ai/ha): 100
- phytotoxicity rating CASOB ([7]; 250 g ai/ha): 100
- phytotoxicity rating IPOHE ([8]; 63 g ai/ha): 100
- phytotoxicity rating IPOHE ([8]; 250 g ai/ha): 100
- phytotoxicity rating ABUTH ([9]; 63 g ai/ha): 100
- phytotoxicity rating ABUTH ([9]; 250 g ai/ha): 100
- phytotoxicity rating AMBEL ([10]; 63 g ai/ha): 100
- phytotoxicity rating AMBEL ([10]; 250 g ai/ha): 100
- phytotoxicity rating SETVI ([11]; 63 g ai/ha): 100
- phytotoxicity rating SETVI ([11]; 250 g ai/ha): 100
- phytotoxicity rating ECHCG ([12]; 63 g ai/ha): 100
- phytotoxicity rating ECHCG ([12]; 250 g ai/ha): 100
- Post-emerge Herbicidal Activity CHEAL (phytotoxicity rating) ([13]; 63 g ai/ha): 95
- Post-emerge Herbicidal Activity CHEAL (phytotoxicity rating) ([13]; 250 g ai/ha): 100
- Post-emerge Herbicidal Activity DIGSA (phytotoxicity rating) ([14]; 63 g ai/ha): 20
- Post-emerge Herbicidal Activity DIGSA (phytotoxicity rating) ([14]; 250 g ai/ha): 80
- Post-emerge Herbicidal Activity SORHA (phytotoxicity rating) ([15]; 63 g ai/ha): 0
- Post-emerge Herbicidal Activity SORHA (phytotoxicity rating) ([15]; 250 g ai/ha): 90
- Post-emerge Herbicidal Activity CASOB (phytotoxicity rating) ([16]; 63 g ai/ha): 70
- Post-emerge Herbicidal Activity CASOB (phytotoxicity rating) ([16]; 250 g ai/ha): 100
- Post-emerge Herbicidal Activity IPOHE (phytotoxicity rating) ([17]; 63 g ai/ha): 95
- Post-emerge Herbicidal Activity IPOHE (phytotoxicity rating) ([17]; 250 g ai/ha): 100
- Post-emerge Herbicidal Activity ABUTH (phytotoxicity rating) ([18]; 63 g ai/ha): 100
- Post-emerge Herbicidal Activity ABUTH (phytotoxicity rating) ([18]; 250 g ai/ha): 100
- Post-emerge Herbicidal Activity SETVI (phytotoxicity rating) ([19]; 63 g ai/ha): 30
- Post-emerge Herbicidal Activity SETVI (phytotoxicity rating) ([19]; 250 g ai/ha): 80
- Post-emerge Herbicidal Activity ECHCG (phytotoxicity rating) ([20]; 63 g ai/ha): 10
- Post-emerge Herbicidal Activity ECHCG (phytotoxicity rating) ([20]; 250 g ai/ha): 90
- Post-emerge Herbicidal Activity AMARE (phytotoxicity rating) ([21]; 63 g ai/ha, rating scale 0-100 (0 no damage, 100 complete death)): 95
- Post-emerge Herbicidal Activity AMARE (phytotoxicity rating) ([21]; 250 g ai/ha, rating scale 0-100): 100
- phytotoxicity rating RICE ([22]; 63 g ai/ha): 95
- phytotoxicity rating RICE ([22]; 250 g ai/ha): 100
- phytotoxicity rating CORN ([23]; 63 g ai/ha): 90
- phytotoxicity rating CORN ([23]; 250 g ai/ha): 100
